# Reference: patent US6887882B2, “Pharmaceutical compositions comprising chelidonine or derivatives thereof” (priority 2002, dated 2005)
# Like-named read-outs stand apart in the source and are kept apart here.
# Key:
# [1] = target: T1, hKv1.5 channel (Homo sapiens, UniProt P22460); test: Block of hKv1.5 channel currents expressed in Ltk-cells (whole cell patch clamp); type: cell-based; conditions: for Hill value: from concentration-response curves using the Hill equation; for IC50 / type of hKv1.5 block / effect on the hKv1.5 channel currents: hKv1.5 expressed in Ltk-cells; for IC50: steady-state current at end of +50 mV depolarizing pulse, holding -80 mV; for type of hKv1.5 block: FIGS. 1a to 1e; for effect on the hKv1.5 channel currents: FIGS. 1a to 1d
# T1 construct: expressed in transfected cells; host or cells: mouse Ltk- cells (pMSVneo vector, G418 selection)
# Experimental: Cell line selectively expressing a specific cardiac K^+ channel gene was prepared according to the method described in the thesis (Yang, et al., Inhibition of cardiac potassium currents by the vesnarinone analog OPC-18790: comparison with quinidine and dofetilide. J Pharmacol Exp Ther. 1997, 280: 1170-1175; Kwak, et al., Phosphorylation is required for alteration of Kv1.5 K^+ channel function by the Kvbeta 1.3 subunit. J Biol Chem 1999, 274: 25355-25361).
# First, cDNAs for human cardiac K^+ channel genes such as hKv 1.5 and HERG were subcloned into pMSVneo which contain dexamethasone-inducible murine mammary tumor virus promoter controlling transcription of the inserted cDNA and a gene conferring neomycin resistance driven by the SV40 early promotor. The cDNA-containing expression vector was transfected into mouse Ltk-cells with lipofectamine. After 24 hours, the cells selection with […] of G418 was performed for 2 weeks or until discrete foci formed. Individual foci were isolated, maintained in 0.25 μg/ml of G418, and screened by Norhtern analysis and electrophysiological analysis. Transfected cells were cultured in Dulbeco's modified Eagle medium (DMEM) supplemented with 10% horse serum and 0.25 μg/ml of G418, under 5% CO2. Transiently transfected cells were cultured in DMEM media supplemented with only 10% horse serum, differently from stable cell lines.
# Currents in human atrial myocytes and cell lines were recorded by using the whole cell configuration of the gigaohm-seal patch clamp techniques (Kwak, et al., Phosphorylation is required for alteration of Kv1.5 K^+ channel function by the Kvbeta 1.3 subunit. J Biol Chem 1999, 274: 25355-25361). First, electrical signals were amplified with a patch clamp amplifier (Axon Instruments, Axopatch-1D, Foster, USA). Currents were digitized by a signal converter (Digidata 1200, Axon Instruments) and stored on the hard disk of a computer. The micropipette with a resistance of 1˜2MΩ (Kimax-51, 1.5=14 1.8×10 mm) for current recording, was pulled out by a 2-stage pipette puller (Narishige, PP-83). The intracellular pipette-filling solution for whole cell mode contained 100 mM KCl, 10 mM HEPES, 5 mM K4BAPTA, 5 mM K2ATP and 1 mM MgCl2 (pH 7.2). The extracellular solution contained 130 mM NaCl, 4 mM KCl, 1.8 mM CaCl2, 1 mM MgCl2, 10 mM HEPES and 10 mM glucose (pH 7.35).
# The current traces were recorded with a depolarizing pulse of +50 mV from a holding potential of −80 mV, followed by a repolarizing pulse of −50 mV in the Ltk-cells. To observe the concentration-dependent block of hKv1.5 channel currents by each compound, steady-state currents taken at the end of the depolarizing pulse of +50 mV were normalized to the control obtained in the absence of each compound
# FIG. 1e is concentration-response curves showing the relative steady-state currents obtained at the end of the depolarizing pulse against the concentration of each compound. Data were fitted with a Hill equation.
# IC50 values (50% inhibitory concentration, μM) of compounds 1˜14 on the hKv1.5 channel currents were determined, and Hill values were calculated from the concentration-response curves of the respective compounds using the Hill equation.
# [2] = system: rabbit atrial tissue; test: Frequency-dependent effects on action potentials of rabbit atrial tissue (APD90); type: cell-based; conditions: varied stimulus frequencies, FIG. 5c; compared to chelidonine
# Experimental: Action potentials in rabbit atrial tissue were recorded according to the method described in thesis by Kwak, et al. (A newly synthesized benzopyran derivatives, activates the cardiac ATP-sensitive K^+ channel. J Pharmacol Exp Ther 1995, 275: 807-812).
# Male New Zealand white rabbits weighing about 2 kg were stunned with a blow on the head and hearts were rapidly excised and transferred to a dissection bath filled with Tyrode's solution saturated with 97% O2 and 3% CO2 gas mixture and each dissected tissue was mounted horizontally in a narrow channel of a tissue chamber and continuously superfused with the Tyrode's solution at 37° C. The action potentials were elicited by stimulating the cardiac cells with square pulses (1˜5 Hz, 1-ms duration, 20-30% above threshold voltage) by a stimulator. […] Tracings on the oscilloscope screen were photographed on a 35-mm film and also recorded on a physiograph (RS 3400, Gould, Cleveland, Ohio). APD90 was used for the comparison of action potential durations. APD90 represents the action potential duration at 90% repolarization, relative to the action potential duration at maximum 100% depolarization. Images on the oscilloscope screen were captured on Polaroid camera.
# We tested whether the effect of chelidonine on action potentials of rabbit atrial myocytes are frequency-dependent or not.
# The relative action potential durations were normalized to the APD90 value in the absence of chelidonine at each frequency. At the stimulus frequency of 1, 2, 3, 4 and 5 Hz, 1 μM chelidonine increased APD90 by 13.0±8.1% (n=5), 14.5±7.9% (n=5), 16.5±2.2% (n=5) 28.2±0.4% (n=5) or 33.0±0.3 1% (n=5) of the control APD90 in the absence of chelidonine at each frequency, respectively.
# [3] = system: mouse; conditions: in vivo, cited from earlier work
# T1 sequence (P22460 whole entry): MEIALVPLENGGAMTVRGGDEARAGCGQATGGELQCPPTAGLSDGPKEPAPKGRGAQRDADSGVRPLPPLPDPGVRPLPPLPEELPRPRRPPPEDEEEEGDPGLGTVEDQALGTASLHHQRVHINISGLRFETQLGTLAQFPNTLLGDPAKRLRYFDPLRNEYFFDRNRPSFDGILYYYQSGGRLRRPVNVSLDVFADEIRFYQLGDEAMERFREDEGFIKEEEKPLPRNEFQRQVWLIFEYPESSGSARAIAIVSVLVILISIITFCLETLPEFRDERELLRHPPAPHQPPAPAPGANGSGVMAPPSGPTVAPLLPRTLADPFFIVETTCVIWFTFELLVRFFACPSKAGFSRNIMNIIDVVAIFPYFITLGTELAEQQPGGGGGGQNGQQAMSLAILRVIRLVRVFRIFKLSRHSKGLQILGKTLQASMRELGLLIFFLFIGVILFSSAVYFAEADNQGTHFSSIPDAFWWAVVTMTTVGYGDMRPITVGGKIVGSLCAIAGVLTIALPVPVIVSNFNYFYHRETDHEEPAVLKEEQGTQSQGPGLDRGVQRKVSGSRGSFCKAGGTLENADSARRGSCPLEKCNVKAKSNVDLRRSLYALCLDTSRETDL
Hill value [1],IC50 [1],Structure (SMILES),type of hKv1.5 block [1],effect on the hKv1.5 channel currents [1],action potential duration prolongation [2],toxicity ([3]; iv),toxicity ([3]; sc)
1.37,59.3 ± 3 µM,"CN1Cc2c(ccc3c2OCO3)[C@H]2[C@@H](OCc3ccccc3)Cc3cc4c(cc3[C@H]21)OCO4 [Compound 3, [5bR-(5bα,6β,12bα)]-5b,6,7,12b,13, 14-hexahydro-6-benzyloxy-13-methyl[1,3]benzodioxolo[5,6c]-1,3-dioxolo[4,5-i]phenanthridine]",,,,,
1.18,29.3 ± 4.2 µM,"CN1Cc2c(ccc3c2OCO3)[C@H]2[C@@H](OC(=O)c3ccccc3)Cc3cc4c(cc3[C@H]21)OCO4 [Compound 5, {[5bR-(5bα,6β,12bα)]-5b,6,7,12b,13, 14-hexahydro-13-methyl[1,3]benzodioxolo[5,6c]-1,3-dioxolo[4,5-i]phenanthridin-6-yl}-benzoate]",showed the tonic blocking effects,concentration-dependent inhibitory effects,"increased the action potential durations in the similar manner as chelidonine, but to a lesser extent",,
0.98,19.9 ± 3.5 µM,"CN1Cc2c(ccc3c2OCO3)C2=CCc3cc4c(cc3[C@H]21)OCO4 [Compound 7, (12bR)-7,12b,13,14-tetrahydro-13-methyl[1,3]-benzodioxolo[5,6c]-1,3-dioxolo[4,5-i]phenanthridine]",,,,,
1.20,31.3 ± 3.5 µM,"CN1Cc2c(ccc3c2OCO3)[C@H]2[C@@H](OS(C)(=O)=O)Cc3cc4c(cc3[C@H]21)OCO4 [Compound 10, {[5bR-(5bα,6β,12bα)]-5b,6,7,12b,13, 14-hexahydro-13-methyl[1,3]benzodioxolo[5,6c]-1,3-dioxolo[4,5-i]phenanthridin-6-yl}-methanesulfonate]",,,,,
1.19,29.6 ± 3.7 µM,"Cc1ccc(S(=O)(=O)O[C@H]2Cc3cc4c(cc3[C@@H]3[C@H]2c2ccc5c(c2CN3C)OCO5)OCO4)cc1 [Compound 11, {[5bR-(5bα,6β,12bα)]-5b,6,7,12b,13, 14-hexahydro-13-methyl[1,3]benzodioxolo[5,6c]-1,3-dioxolo[4,5-i]phenanthridin-6-yl}-4-methylbenzenesulfonate]",,,,,
1.12,1.9 ± 1 µM,"CN1Cc2c(ccc3c2OCO3)[C@H]2[C@@H](OC(N)=O)Cc3cc4c(cc3[C@H]21)OCO4 [Compound 12, {[5bR-(5bα,6β,12bα)]-5b,6,7,12b,13, 14-hexahydro-13-methyl[1,3]benzodioxolo[5,6c]-1,3-dioxolo[4,5-i]phenanthridin-6-yl}-carbamate]",,,,,
1.34,,"CN1Cc2c(ccc3c2OCO3)[C@@]2(C)[C@@H](O)Cc3cc4c(cc3[C@@H]12)OCO4 [Compound 13, [5bR-(5bα,6β,12bα)]-5b,6,7,12b,13, 14-hexahydro-5b,13-dimethyl[1,3]-benzodioxolo[5,6c]-1,3-dioxolo[4,5-i] phenanthridin-6-ol]",,,,,

Structure (SMILES),Hill value [1],IC50 [1],type of hKv1.5 block [1],effect on the hKv1.5 channel currents [1],action potential duration prolongation [2],toxicity ([3]; iv),toxicity ([3]; sc)
"CO[C@H]1Cc2cc3c(cc2[C@@H]2[C@H]1c1ccc4c(c1CN2C)OCO4)OCO3 [Compound 2, [5bR-(5bα,6β,12bα)]-5b,6,7,12b,13, 14-hexahydro-6-methoxy-13-methyl[1,3]-benzodioxolo[5,6c]-1,3-dioxolo[4,5-i]phenanthridine]",1.29,45.2 ± 4.1 µM,,,,,
"CC(=O)O[C@H]1Cc2cc3c(cc2[C@@H]2[C@H]1c1ccc4c(c1CN2C)OCO4)OCO3 [Compound 4, {[5bR-(5bα,6β,12bα)]-5b,6,7,12b,13, 14-hexahydro-13-methyl[1,3]benzodioxolo[5,6c]-1,3-dioxolo[4,5-i]phenanthridin-6-yl}-acetate]",1.34,11.3 ± 3.3 µM,predominantly blocked the open ion channels,concentration-dependent inhibitory effects,"increased the action potential durations in the similar manner as chelidonine, but to a lesser extent",,
"CN1Cc2c(ccc3c2OCO3)-c2ccc3cc4c(cc3c21)OCO4 [Compound 6, (12bR)-13,14-dihydro-13-methyl [1,3]benzodioxolo[5,6c]-1,3-dioxolo[4,5-i]phenanthridine]",1.09,26.4 ± 3.9 µM,,,,,
"CN1Cc2c(ccc3c2OCO3)[C@H]2CCc3cc4c(cc3[C@H]21)OCO4 [Compound 8, [5bR-(5bα,6β,12bα)]-5b,6,7,12b,13, 14-hexahydro-13-methyl[1,3] benzodioxolo[5,6c]-1,3-dioxolo[4,5-i]phenanthridine]",1.38,65.6 ± 4.2 µM,,,,,
"CN1Cc2c(ccc3c2OCO3)[C@H]2[C@@H](OP(=O)(Oc3ccccc3)Oc3ccccc3)Cc3cc4c(cc3[C@H]21)OCO4 [Compound 9, {[5bR-(5bα,6β,12bα)]-5b,6,7,12b,13, 14-hexahydro-13-methyl[1,3]benzodioxolo[5,6c]-1,3-dioxolo[4,5-i]phenanthridin-6-yl}-diphenylphosphate]",1.26,,,,,,
"C[n+]1cc2c3c(ccc2c2ccc4cc5c(cc4c21)OCO5)OCO3 [Compound 14, 13-methyl[1,3]benzodioxolo[5,6c]-1,3-dioxolo[4,5-i]phenanthridinium]",1.39,13 ± 3.8 µM,slowed the channel activation,concentration-dependent inhibitory effects,"increased the action potential durations in the similar manner as chelidonine, but to a lesser extent",15.9 mg/kg,102.0 mg/kg
